# Test results: patent US4414205A, “Cell growth inhibitory substances” (University Patents, Inc., priority 1981, dated 1983)
# Tests used:
# [1] = tested on: P388 leukemia; assay: Mouse tumor system P388 leukemia (murine P388 lymphocytic leukemia); format: in vivo
# Description: (§1) A description of the antitumor tests, described herein, appears in the reference by R. I. Geran, N. H. Greenberg, M. M. MacDonald, A. M. Schumacher and B. J. Abbott, Cancer Chemother. Rep. Part 3, Vol. 3(2): 1-103 (1972).
# (§2) ^a tumors were inoculated intraperitoneally (i.p.)
# (§3) ^b compounds were administered i.p. everyday for 9 days starting on
# (§4) the first day after tumor inoculation.
# (§5) ^c Calculated from median survival times; Nos. in parentheses = No. o
# (§6) cures/total No. of mice in group. Cured mice survive for at least 60 days
# [2] = tested on: B16 melanoma; assay: Mouse tumor system B16 melanoma (NCI murine B16 melanoma test); format: in vivo
# Description: as §1, §2, §3, §4, §5, §6
substance,measurement,setting,value
Dolastatin 1,life span in percent of controls,"[1]; P388 leukemia inoculated i.p., compound i.p. every day for 9 days at optimal dose, from median survival times",188% of controls
same,optimal dose,"[1]; P388 leukemia, i.p. every day for 9 days starting first day after tumor inoculation",11 μg/kg/injection
same,life extension,"[1]; murine P388 lymphocytic leukemia, intraperitoneal doses of 11 μg/kg/day",88%
same,No. of cures/total No. of mice in group,"[2]; B16 melanoma i.p., optimal dose i.p. daily for 9 days, cured mice survive at least 60 days",3/10
same,life span in percent of controls,"[2]; B16 melanoma inoculated i.p., compound i.p. every day for 9 days at optimal dose, from median survival times",240% of controls
same,optimal dose,"[2]; B16 melanoma, i.p. every day for 9 days starting first day after tumor inoculation",11 μg/kg/injection
same,curative response,"[2]; murine B16 melanoma, intraperitoneal dose of 11 μg/kg/day",30%
